Reference: PubChem BioAssay (NCI)
Where “and” joins values, the source holds several entries; their conditions need not be identical. Equal entries are not always repeated.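 Cultured in 96-well plates, cells were exposed to test compound for 48 hours across five concentrations. Abbreviation: GI50, concentration required for 50% inhibition of growth. At the TGI there is no net growth.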

What was measured:
Test in all cases: NCI-60 cell line screen, 48 h
COLO 205 colon = system: COLO 205 colon
NCI-H460 lung = system: NCI-H460 lung
SF-295 CNS = system: SF-295 CNS
MCF7 breast = system: MCF7 breast
NCI-H226 lung = system: NCI-H226 lung
HOP-92 NSCLC = system: HOP-92 NSCLC
TK-10 renal = system: TK-10 renal
OVCAR-3 ovarian = system: OVCAR-3 ovarian
UO-31 renal = system: UO-31 renal
SR leukemia = system: SR leukemia

| Compound | GI50 (COLO 205 colon) | TGI (COLO 205 colon) | GI50 (NCI-H460 lung) | TGI (NCI-H460 lung) | GI50 (SF-295 CNS) | TGI (SF-295 CNS) | GI50 (MCF7 breast) | TGI (MCF7 breast) | GI50 (NCI-H226 lung) | TGI (NCI-H226 lung) | GI50 (HOP-92 NSCLC) | TGI (HOP-92 NSCLC) | GI50 (TK-10 renal) | TGI (TK-10 renal) | GI50 (OVCAR-3 ovarian) | TGI (OVCAR-3 ovarian) | GI50 (UO-31 renal) | TGI (UO-31 renal) | GI50 (SR leukemia) | TGI (SR leukemia) |
| --- | --- | --- | --- | --- | --- | --- | --- | --- | --- | --- | --- | --- | --- | --- | --- | --- | --- | --- | --- | --- |
| NC(=S)N/N=C/c1ncccc1O | 3.48 µM | > 431 µM | 3.17 µM | 48.5 µM and 25.2 µM | 2.47 µM | 27.1 µM and 3.94 µM | 2.55 µM | > 37.5 µM and 183 µM | 4.3 µM | 18 µM and 122 µM | 6.55 µM | 31.2 µM and 90.7 µM | 11.2 µM | 292 µM | 2.77 µM | > 59.3 µM and 123 µM | 1.48 µM | > 33.8 µM and 6.46 µM | 0.585 µM | 28.8 µM and > 148 µM |
| O=[N+]([O-])c1ccccc1N=Nc1c(O)[nH]c2c(Cl)cc(Cl)cc12 |  | > 100 µM |  | > 100 µM |  | > 61 µM |  | > 100 µM |  | > 100 µM |  | > 68.2 µM |  | 96.2 µM |  | > 74.7 µM |  | > 100 µM |  | 22.6 µM |
| CCn1cc(-c2ccnc3[nH]c(-c4cccc(CN(C)C)c4)cc23)c(-c2ccc(NC(=O)N(C)C)cc2)n1 | < 0.01 µM and 0.0272 µM | 3.81 µM and 2.99 µM | 0.209 µM and 0.109 µM | 13.7 µM and > 10 µM | 0.484 µM and 0.408 µM | 11.7 µM and > 10 µM | 0.487 µM and 0.312 µM | 19.4 µM and > 10 µM | 0.25 µM and 0.451 µM | 16.2 µM and > 10 µM | 0.338 µM and 0.294 µM | 5.2 µM and 2.99 µM | 6.77 µM and 1.67 µM | 26 µM and > 10 µM | 3.82 µM and 3.15 µM | 23.9 µM and > 10 µM | 2.22 µM and 1.99 µM | 9.98 µM and > 10 µM | 0.122 µM and 0.031 µM | 6.58 µM and 3.28 µM |
| O=c1[nH]c(-c2cccc(F)c2)cc2cc(F)ccc12 | 0.338 µM | > 100 µM | 0.389 µM | > 100 µM | 0.305 µM | > 100 µM | 0.329 µM | > 100 µM |  | > 100 µM | > 100 µM | > 100 µM | > 50 µM | > 100 µM | 0.314 µM |  | 1.65 µM | > 100 µM | 0.0712 µM | > 100 µM |
| CCOC(=O)c1c(C)c2c(n1Cc1ccccc1)CSCC2=O | 20.3 µM | 48.8 µM | 20.4 µM | 55.1 µM | 18 µM | 49.5 µM | 17.7 µM | 44.7 µM | 20.2 µM | 89.1 µM | 1.21 µM | 19.8 µM | 27.3 µM | 81.4 µM | 17.5 µM | 46.2 µM | 13.5 µM | > 100 µM | 7.06 µM | > 100 µM |
